Measured values taken from ChEMBL document CHEMBL4834420, “Projected Dose Optimization of Amino- and Hydroxypyrrolidine Purine PI3Kδ Immunomodulators” (J Med Chem, 2021).

Experiments:
[1] = Plasma clearance in Wistar Han rat at 0.5 mg/kg, iv or 1 mg/kg, po; format: ADME, organism-based
[2] = Half-life in Beagle dog; format: ADME, Canis lupus familiaris; conditions: in vivo
[3] = Plasma clearance in Beagle dog at 0.05 mg/kg; format: ADME, organism-based, Canis lupus familiaris
[4] = Volume of distribution in Beagle dog; format: ADME, Canis lupus familiaris; conditions: in vivo
[5] = Oral bioavailability in Wistar Han rat; format: ADME, organism-based; conditions: in vivo
[6] = Intrinsic clearance in Beagle dog at 0.05 mg/kg; format: ADME, organism-based, Canis lupus familiaris; conditions: in vivo
[7] = target: T1, Phosphatidylinositol 4,5-bisphosphate 3-kinase catalytic subunit delta isoform (Homo sapiens, UniProt O00329); assay: Inhibition of PI3Kdelta in human Ramos cells assessed as reduction in anti-IgM-antibody-induced phosphorylation of AKT at Ser473 residue preincubated for 20 mins followed by anti-IgM antibody stimulation and measured after 30 mins by alphascreen assay; format: cell-based
T1 sequence (O00329 whole entry): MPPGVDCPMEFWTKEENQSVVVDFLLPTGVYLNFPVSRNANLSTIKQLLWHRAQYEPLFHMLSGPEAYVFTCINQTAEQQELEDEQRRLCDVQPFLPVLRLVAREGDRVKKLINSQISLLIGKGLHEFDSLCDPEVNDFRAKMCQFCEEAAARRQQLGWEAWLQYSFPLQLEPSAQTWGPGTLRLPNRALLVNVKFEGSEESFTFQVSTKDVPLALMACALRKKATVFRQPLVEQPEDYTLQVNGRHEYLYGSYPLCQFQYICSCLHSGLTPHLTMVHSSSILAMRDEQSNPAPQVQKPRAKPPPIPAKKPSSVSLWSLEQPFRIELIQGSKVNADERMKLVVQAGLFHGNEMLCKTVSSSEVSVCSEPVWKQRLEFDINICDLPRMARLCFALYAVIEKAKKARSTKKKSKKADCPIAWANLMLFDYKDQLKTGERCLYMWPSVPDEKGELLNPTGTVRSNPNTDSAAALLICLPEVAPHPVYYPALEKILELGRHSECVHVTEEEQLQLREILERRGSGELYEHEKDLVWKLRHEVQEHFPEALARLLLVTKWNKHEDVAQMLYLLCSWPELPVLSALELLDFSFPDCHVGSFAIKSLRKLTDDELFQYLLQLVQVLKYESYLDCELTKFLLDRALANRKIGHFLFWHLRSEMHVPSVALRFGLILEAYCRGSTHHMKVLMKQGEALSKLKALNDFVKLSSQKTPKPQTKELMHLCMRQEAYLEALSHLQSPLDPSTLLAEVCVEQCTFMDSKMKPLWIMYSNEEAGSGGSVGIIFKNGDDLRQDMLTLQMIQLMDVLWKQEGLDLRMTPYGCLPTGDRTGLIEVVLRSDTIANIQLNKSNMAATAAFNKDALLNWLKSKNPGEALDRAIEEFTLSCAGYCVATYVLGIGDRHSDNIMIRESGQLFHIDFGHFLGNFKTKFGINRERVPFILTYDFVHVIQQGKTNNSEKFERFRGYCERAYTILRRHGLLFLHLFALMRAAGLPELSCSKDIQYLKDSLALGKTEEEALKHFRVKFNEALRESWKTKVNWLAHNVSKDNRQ

[8] = Unbound volume of distribution in Wistar Han rat; format: ADME; conditions: in vivo
[9] = target: PI3-kinase p110-delta/p85-alpha (Homo sapiens, UniProt O00329); assay: Inhibition of N-terminal His6-tagged recombinant full length human p110delta/untagged recombinant full length human p85alpha expressed in baculovirus infected Sf21 insect cells using PIP2 as substrate preincubated for 15 mins followed by substrate addition and measured after 1 hr by HTRF assay
Chain of PI3-kinase p110-delta/p85-alpha (P27986 whole entry, one chain of several): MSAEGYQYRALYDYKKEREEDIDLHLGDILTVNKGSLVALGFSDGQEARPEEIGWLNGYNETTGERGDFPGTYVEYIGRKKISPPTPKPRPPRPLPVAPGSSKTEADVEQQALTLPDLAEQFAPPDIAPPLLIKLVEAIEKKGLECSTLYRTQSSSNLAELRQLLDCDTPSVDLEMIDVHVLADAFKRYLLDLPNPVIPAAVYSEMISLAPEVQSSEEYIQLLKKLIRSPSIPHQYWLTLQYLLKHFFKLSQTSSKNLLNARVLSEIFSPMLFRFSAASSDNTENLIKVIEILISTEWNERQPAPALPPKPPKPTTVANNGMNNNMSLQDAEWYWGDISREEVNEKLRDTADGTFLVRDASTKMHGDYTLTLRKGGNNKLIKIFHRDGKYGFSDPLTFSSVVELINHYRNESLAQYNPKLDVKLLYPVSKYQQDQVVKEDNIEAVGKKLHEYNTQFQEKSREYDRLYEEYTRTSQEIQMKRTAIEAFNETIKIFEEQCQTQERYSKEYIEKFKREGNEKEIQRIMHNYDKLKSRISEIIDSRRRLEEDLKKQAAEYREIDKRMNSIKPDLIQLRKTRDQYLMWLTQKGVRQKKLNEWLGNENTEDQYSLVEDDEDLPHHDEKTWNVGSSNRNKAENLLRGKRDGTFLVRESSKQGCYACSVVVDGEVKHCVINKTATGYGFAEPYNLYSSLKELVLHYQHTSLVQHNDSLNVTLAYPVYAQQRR

[10] = Inhibition of adenosine transporter in human HeLa cells assessed as reduction in [3H]adenosine uptake preincubated for 30 mins followed by [3H]adenosine addition and measured after 60 mins; format: cell-based
[11] = Half-life in Wistar Han rat; format: ADME; conditions: in vivo
[12] = Intrinsic clearance in Wistar Han rat at 0.5 mg/kg, iv or 1 mg/kg, po; format: ADME, organism-based; conditions: in vivo
[13] = Volume of distribution in Wistar Han rat; format: ADME; conditions: in vivo
[14] = Unbound volume of distribution in Beagle dog; format: ADME, Canis lupus familiaris; conditions: in vivo
[15] = Lipophilicity, log D of the compound by HPLC analysis; format: physicochemical
[16] = Apparent permeability in pig LLC-PK1 cells; format: ADME, cell-based, Sus scrofa
[17] = Plasma clearance in Beagle dog at 0.25 mg/kg, iv or 0.5 mg/kg, po; format: ADME, organism-based, Canis lupus familiaris
[18] = target: T1, Phosphatidylinositol 4,5-bisphosphate 3-kinase catalytic subunit delta isoform; assay: Inhibition of PI3Kdelta in human whole blood assessed as reduction in anti-CD79b antibody-induced CD69 expression preincubated for 60 mins followed by anti-CD79b antibody stimulation and measured after 3 hrs by FACS analysis; format: tissue-based
[19] = Oral bioavailability in Beagle dog; format: ADME, organism-based, Canis lupus familiaris; conditions: in vivo
[20] = Intrinsic clearance in Beagle dog at 0.25 mg/kg, iv or 0.5 mg/kg, po; format: ADME, organism-based, Canis lupus familiaris; conditions: in vivo
[21] = Plasma clearance in Wistar Han rat at 0.05 mg/kg, iv or 1 mg/kg, po; format: ADME, organism-based
[22] = Intrinsic clearance in Wistar Han rat at 0.05 mg/kg, iv or 1 mg/kg, po; format: ADME, organism-based; conditions: in vivo

CCn1c(-c2cnc(C)nc2)nc2c(O[C@H]3CCN(C(=O)N4CC(OC)C4)C3)ncnc21
clearance [1]: 4 mL/min/kg
half-life [2]: 1.2 h
clearance [3]: 12 mL/min/kg
Vd [4]: 1.4 L/kg
bioavailability [5]: 75%
CL [6]: 32 mL/min/kg
IC50 [7]: 63 nM
Vdu [8]: 2.1 L/kg
IC50 [9]: 3.3 nM
IC50 [10]: 8700 nM
half-life [11]: 1.7 h
CL [12]: 25 mL/min/kg
Vd [13]: 0.4 L/kg
Vdu [14]: 2.3 L/kg
logD [15]: 0.9

CCn1c(-c2cnc(C)nc2)nc2c(O[C@H]3CCN(C(=O)C4CCOCC4)C3)ncnc21
clearance [1]: 14 mL/min/kg
half-life [2]: 1.9 h
clearance [3]: 4.3 mL/min/kg
Vd [4]: 0.8 L/kg
bioavailability [5]: 31%
CL [6]: 7 mL/min/kg
IC50 [7]: 390 nM
Vdu [8]: 1.5 L/kg
IC50 [9]: 13 nM
IC50 [10]: > 10000 nM
half-life [11]: 1.4 h
CL [12]: 37 mL/min/kg
Vd [13]: 0.8 L/kg
Vdu [14]: 1.1 L/kg
logD [15]: 0.8

CCn1c(-c2ccc(C(F)(F)F)nc2)nc2c(N[C@H]3CCN(C(=O)C4CC4)C3)ncnc21
clearance [1]: 4.7 mL/min/kg
half-life [2]: 3.1 h
clearance [3]: 5.6 mL/min/kg
Vd [4]: 1.2 L/kg
bioavailability [5]: 36%
CL [6]: 22 mL/min/kg
IC50 [7]: 12 nM
Vdu [8]: 8.8 L/kg
IC50 [9]: 1.7 nM
IC50 [10]: 1200 nM
half-life [11]: 1.2 h
CL [12]: 104 mL/min/kg
Vd [13]: 0.4 L/kg
Vdu [14]: 3.9 L/kg
logD [15]: 2

CCC(=O)N1CC[C@H](Nc2ncnc3c2nc(-c2cnc(C)nc2)n3CC)C1
clearance [1]: 21 mL/min/kg
half-life [2]: 2.7 h
clearance [3]: 5.5 mL/min/kg
Vd [4]: 1.5 L/kg
bioavailability [5]: 61%
Papp [16]: 21 ×10⁻⁶ cm/s
CL [6]: 9 mL/min/kg
IC50 [7]: 42 nM
Vdu [8]: 3.6 L/kg
IC50 [9]: 1.9 nM
IC50 [10]: > 10000 nM
half-life [11]: 1.5 h
CL [12]: 100 mL/min/kg
Vd [13]: 1 L/kg
Vdu [14]: 1.9 L/kg
logD [15]: 0.7

CCn1c(-c2cnc(C)nc2)nc2c(N[C@H]3CCN(C(=O)C4CCC4)C3)ncnc21
clearance [1]: 13 mL/min/kg
half-life [2]: 1.3 h
clearance [17]: 11 mL/min/kg
Vd [4]: 1.3 L/kg
bioavailability [5]: 74%
Papp [16]: 32 ×10⁻⁶ cm/s
IC50 [7]: 4 nM
Vdu [8]: 9.2 L/kg
IC50 [9]: 0.4 nM
IC50 [10]: 1200 nM
IC50 [18]: 14 nM
bioavailability [19]: 84%
CL [20]: 30 mL/min/kg
half-life [11]: 0.6 h
CL [12]: 320 mL/min/kg
Vd [13]: 0.5 L/kg
Vdu [14]: 2.3 L/kg
logD [15]: 1.2

CCn1c(-c2cnc(C)nc2)nc2c(N[C@H]3CCN(C(=O)[C@H]4C[C@@H](OC)C4)C3)ncnc21
clearance [1]: 6.9 mL/min/kg
half-life [2]: 4.3 h
clearance [17]: 7.1 mL/min/kg
Vd [4]: 1.5 L/kg
bioavailability [5]: 52%
Papp [16]: 10 ×10⁻⁶ cm/s
IC50 [7]: 34 nM
Vdu [8]: 4.1 L/kg
IC50 [9]: 0.8 nM
IC50 [10]: 6100 nM
IC50 [18]: 26 nM
bioavailability [19]: 85%
CL [20]: 13 mL/min/kg
half-life [11]: 2.3 h
CL [12]: 81 mL/min/kg
Vd [13]: 1.5 L/kg
Vdu [14]: 2 L/kg
logD [15]: 0.9

CCn1c(-c2cnc(C)nc2)nc2c(N[C@H]3CCN(C(=O)N4CC(OC)C4)C3)ncnc21
clearance [1]: 11 mL/min/kg
half-life [2]: 1.7 h
clearance [17]: 9 mL/min/kg
Vd [4]: 1.4 L/kg
bioavailability [5]: 16%
Papp [16]: 10 ×10⁻⁶ cm/s
IC50 [7]: 67 nM
Vdu [8]: 4.8 L/kg
IC50 [9]: 0.7 nM
IC50 [10]: 4700 nM
IC50 [18]: 9 nM
bioavailability [19]: 69%
CL [20]: 19 mL/min/kg
half-life [11]: 4 h
CL [12]: 93 mL/min/kg
Vd [13]: 0.7 L/kg
Vdu [14]: 1.9 L/kg
logD [15]: 0.7

CCn1c(-c2cnc(C)nc2)nc2c(O[C@H]3CCN(C(=O)[C@H]4C[C@@H](OC)C4)C3)ncnc21
clearance [1]: 3.8 mL/min/kg
half-life [2]: 3.6 h
clearance [17]: 2.1 mL/min/kg
Vd [4]: 0.6 L/kg
bioavailability [5]: 37%
Papp [16]: 18 ×10⁻⁶ cm/s
IC50 [7]: 110 nM
Vdu [8]: 2.5 L/kg
IC50 [9]: 2.8 nM
IC50 [10]: > 10000 nM
IC50 [18]: 75 nM
bioavailability [19]: 80%
CL [20]: 3.3 mL/min/kg
half-life [11]: 1.8 h
CL [12]: 19 mL/min/kg
Vd [13]: 0.5 L/kg
Vdu [14]: 0.9 L/kg
logD [15]: 1

CCn1c(-c2cnc(C)nc2)nc2c(N[C@H]3CCN(C(=O)c4cocn4)C3)ncnc21
IC50 [7]: 82 nM
Vdu [8]: 6.1 L/kg
clearance [21]: 13 mL/min/kg
half-life [11]: 0.7 h
CL [22]: 150 mL/min/kg
Vd [13]: 0.6 L/kg
logD [15]: 0.6

CCn1c(-c2ccc(C(F)(F)F)nc2)nc2c(O[C@H]3CCN(C(=O)N4CC(OC)C4)C3)ncnc21
clearance [1]: 1.7 mL/min/kg
half-life [2]: 0.7 h
clearance [17]: 12 mL/min/kg
Vd [4]: 0.7 L/kg
bioavailability [5]: 52%
Papp [16]: 33 ×10⁻⁶ cm/s
IC50 [7]: 43 nM
Vdu [8]: 4.2 L/kg
IC50 [9]: 1.3 nM
IC50 [10]: 2200 nM
IC50 [18]: 68 nM
bioavailability [19]: 100%
CL [20]: 46 mL/min/kg
half-life [11]: 2 h
CL [12]: 29 mL/min/kg
Vd [13]: 0.2 L/kg
Vdu [14]: 1.7 L/kg
logD [15]: 2.1
